From patent US20250215029A1 (Recludix Pharma, Inc., priority 2022, published 2025)

Columns and labels:
[1] = target: T1, Recombinant STAT3 protein (STAT3 (G127-I722)) (Homo sapiens, UniProt P40763); experiment: STAT3 Fluorescence Polarization (FP) Assay; assay type: binding; settings: STAT3 (G127-I722) 25 nM, probe 5-FAM-GpYLPQTV-NH2 2 nM, 45-minute incubation; read-out: STAT3 (FP assay IC50 class)
T1 construct: Recombinant STAT3 protein (STAT3 (G127-I722))
Method in brief: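 In this competition FP format, STAT3 residues G127-I722 (25 nM) and 2 nM 5-FAM-GpYLPQTV-NH2 met test compounds for 45 min at room temperature. IC50 values result from fitting mP signal against log concentration by nonlinear regression.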

[2] = target: T2, Recombinant STAT6 protein (STAT6 (W123-T658)) (Homo sapiens, UniProt P42226); experiment: STAT6 Fluorescence Polarization (FP) Assay; assay type: binding; settings: STAT6 (W123-T658) 250 nM, probe 5-FAM-Ap[…]-NH2 2 nM, 45-minute incubation; read-out: STAT6 (FP assay IC50 class)
T2 construct: Recombinant STAT6 protein (STAT6 (W123-T658))
T2 sequence (P42226 123-658): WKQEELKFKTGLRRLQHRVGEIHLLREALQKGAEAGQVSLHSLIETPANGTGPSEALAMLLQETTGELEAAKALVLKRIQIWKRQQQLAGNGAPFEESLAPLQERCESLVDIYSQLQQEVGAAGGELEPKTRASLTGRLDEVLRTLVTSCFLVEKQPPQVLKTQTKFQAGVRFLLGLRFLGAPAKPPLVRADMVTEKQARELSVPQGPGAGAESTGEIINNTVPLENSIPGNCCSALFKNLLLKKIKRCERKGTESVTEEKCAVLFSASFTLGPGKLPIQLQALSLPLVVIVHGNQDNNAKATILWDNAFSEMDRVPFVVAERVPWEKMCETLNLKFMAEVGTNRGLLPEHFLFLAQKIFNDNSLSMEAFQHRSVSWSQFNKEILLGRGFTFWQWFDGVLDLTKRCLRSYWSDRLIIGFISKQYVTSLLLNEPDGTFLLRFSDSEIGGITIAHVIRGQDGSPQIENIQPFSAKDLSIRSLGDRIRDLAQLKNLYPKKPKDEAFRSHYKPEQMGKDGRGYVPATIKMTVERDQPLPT
Method in brief: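 Competitive FP binding: recombinant STAT6 (W123-T658) at 250 nM, labeled phosphotyrosine peptide at 2 nM, compounds at 1% DMSO, 45 min at RT before reading. IC50 values were obtained from nonlinear regression of mP versus log concentration.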

T1 sequence (P40763 127-722): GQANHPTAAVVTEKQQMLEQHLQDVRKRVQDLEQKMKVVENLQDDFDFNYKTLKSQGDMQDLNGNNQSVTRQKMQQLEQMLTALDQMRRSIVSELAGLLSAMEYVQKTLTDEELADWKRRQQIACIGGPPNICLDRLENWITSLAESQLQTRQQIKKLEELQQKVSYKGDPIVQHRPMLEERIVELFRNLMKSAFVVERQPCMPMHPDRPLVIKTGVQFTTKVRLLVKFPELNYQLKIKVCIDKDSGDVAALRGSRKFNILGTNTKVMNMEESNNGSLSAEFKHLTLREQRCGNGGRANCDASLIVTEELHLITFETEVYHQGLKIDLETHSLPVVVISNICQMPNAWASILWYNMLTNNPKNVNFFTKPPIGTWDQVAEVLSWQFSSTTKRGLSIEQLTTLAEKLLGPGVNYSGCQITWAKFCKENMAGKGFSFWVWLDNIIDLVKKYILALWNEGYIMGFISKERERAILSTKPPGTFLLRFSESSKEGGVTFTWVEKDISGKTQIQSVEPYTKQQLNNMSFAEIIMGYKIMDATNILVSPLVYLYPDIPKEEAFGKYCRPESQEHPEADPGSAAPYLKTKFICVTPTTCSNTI

Compound: O=C(N[C@H]1CCC[C@H]2CC[C@@H](C(=O)N3CC(c4ccccc4O)C3)N2C1=O)c1cc2cc(C(F)P(=O)(O)O)ccc2s1 (stereo partly drawn) [Compound 608, (fluoro(2-(((3S,6S,9aS)-3-(3-(2-hydroxyphenyl)azetidine-1-carbonyl)-5-oxooctahydro-1H-pyrrolo[1,2-a]azepin-6-yl)carbamoyl)benzo [b]thiophen-5-yl)methyl) phosphonic acid]
- IC50 [1]: < 0.1 µM
- IC50 [2]: 0.3 to 3 µM

Compound: O=C(N[C@H]1CCC[C@H]2CC[C@@H](C(=O)N3CC(n4cnccc4=O)C3)N2C1=O)c1cc2cc(C(F)P(=O)(O)O)ccc2s1 (stereo partly drawn) [Compound 609, (fluoro(2-(((3S,6S,9aS)-5-oxo-3-(3-(6-oxopyrimidin-1(6H)-yl)azetidine-1-carbonyl)octahydro-1H-pyrrolo[1,2-a]azepin-6-yl)carbamoyl)benzo [b]thiophen-5-yl)methyl) phosphonic acid]
- IC50 [1]: 0.1 to 1 µM
- IC50 [2]: 3 to 30 µM

Compound: O=C(N[C@H]1CCC[C@H]2CC[C@@H](C(=O)N3CC(c4ccncc4F)C3)N2C1=O)c1cc2cc(C(F)P(=O)(O)O)ccc2s1 (stereo partly drawn) [Compound 610, (fluoro(2-(((3S,6S,9aS)-3-(3-(3-fluoropyridin-4-yl)azetidine-1-carbonyl)-5-oxooctahydro-1H-pyrrolo[1,2-a]azepin-6-yl)carbamoyl)benzo [b]thiophen-5-yl)methyl) phosphonic acid]
- IC50 [1]: 0.1 to 1 µM
- IC50 [2]: 3 to 30 µM

Compound: O=C(N[C@H]1CCC[C@H]2CC[C@@H](C(=O)N3CC(c4ccncc4)C3)N2C1=O)c1cc2cc(C(F)P(=O)(O)O)ccc2s1 (stereo partly drawn) [Compound 611, (fluoro(2-(((3S,6S,9aS)-5-oxo-3-(3-(pyridin-4-yl)azetidine-1-carbonyl)octahydro-1H-pyrrolo[1,2-a]azepin-6-yl)carbamoyl)benzo [b]thiophen-5-yl)methyl) phosphonic acid]
- IC50 [1]: 0.1 to 1 µM
- IC50 [2]: 3 to 30 µM

Compound: CC(C)Oc1ccncc1C1CN(C(=O)[C@@H]2CC[C@@H]3CCC[C@H](NC(=O)c4cc5cc(C(F)P(=O)(O)O)ccc5s4)C(=O)N32)C1 (stereo partly drawn) [Compound 612, (fluoro(2-(((3S,6S,9aS)-3-(3-(4-isopropoxypyridin-3-yl)azetidine-1-carbonyl)-5-oxooctahydro-1H-pyrrolo[1,2-a]azepin-6-yl)carbamoyl)benzo [b]thiophen-5-yl)methyl) phosphonic acid]
- IC50 [1]: < 0.1 µM
- IC50 [2]: 3 to 30 µM

Compound: O=C(N[C@H]1CCC[C@H]2CC[C@@H](C(=O)N3CC(n4cccn4)C3)N2C1=O)c1cc2cc(C(F)P(=O)(O)O)ccc2s1 (stereo partly drawn) [Compound 613, ((2-(((3S,6S,9aS)-3-(3-(1H-pyrazol-1-yl)azetidine-1-carbonyl)-5-oxooctahydro-1H-pyrrolo[1,2-a]azepin-6-yl)carbamoyl)benzo [b]thiophen-5-yl)fluoromethyl) phosphonic acid]
- IC50 [1]: 0.1 to 1 µM
- IC50 [2]: 3 to 30 µM

Compound: O=C(N[C@H]1CCC[C@H]2CC[C@@H](C(=O)N3CC(n4cc(F)cn4)C3)N2C1=O)c1cc2cc(C(F)P(=O)(O)O)ccc2s1 (stereo partly drawn) [Compound 614, (fluoro(2-(((3S,6S,9aS)-3-(3-(4-fluoro-1H-pyrazol-1-yl)azetidine-1-carbonyl)-5-oxooctahydro-1H-pyrrolo[1,2-a]azepin-6-yl)carbamoyl)benzo [b]thiophen-5-yl)methyl) phosphonic acid]
- IC50 [1]: 0.1 to 1 µM
- IC50 [2]: 3 to 30 µM

Compound: COCCOC1(c2ccccn2)CN(C(=O)[C@@H]2CC[C@@H]3CCCC[C@H](NC(=O)c4cc5cc(C(F)P(=O)(O)O)ccc5s4)C(=O)N32)C1 (stereo partly drawn) [Compound 615, (fluoro(2-(((3S,6S,10aS)-3-(3-(2-methoxyethoxy)-3-(pyridin-2-yl)azetidine-1-carbonyl)-5-oxodecahydropyrrolo[1,2-a]azocin-6-yl)carbamoyl)benzo [b]thiophen-5-yl)methyl) phosphonic acid]
- IC50 [1]: < 0.1 µM
- IC50 [2]: 3 to 30 µM

Compound: O=C(N[C@H]1CCCC[C@H]2CC[C@@H](C(=O)N3CC(OCC(F)F)(c4cccnc4)C3)N2C1=O)c1cc2cc(C(F)P(=O)(O)O)ccc2s1 (stereo partly drawn) [Compound 616, ((2-(((3S,6S,10aS)-3-(3-(2,2-difluoroethoxy)-3-(pyridin-3-yl)azetidine-1-carbonyl)-5-oxodecahydropyrrolo [1,2-a]azocin-6-yl)carbamoyl)benzo [b]thiophen-5-yl)fluoromethyl) phosphonic acid]
- IC50 [1]: < 0.1 µM
- IC50 [2]: 3 to 30 µM

Compound: Cn1ccc(=O)c(C2CN(C(=O)[C@@H]3CC[C@@H]4CCC[C@H](NC(=O)c5cc6cc(C(F)P(=O)(O)O)ccc6s5)C(=O)N43)C2)c1 (stereo partly drawn) [Compound 617, (fluoro(2-(((3S,6S,9aS)-3-(3-(1-methyl-4-oxo-1,4-dihydropyridin-3-yl)azetidine-1-carbonyl)-5-oxooctahydro-1H-pyrrolo[1,2-a]azepin-6-yl)carbamoyl)benzo [b]thiophen-5-yl)methyl) phosphonic acid]
- IC50 [1]: 0.1 to 1 µM
- IC50 [2]: 3 to 30 µM

Compound: CCc1ccncc1C1CN(C(=O)[C@@H]2CC[C@@H]3CCC[C@H](NC(=O)c4cc5cc(CP(=O)(O)O)ccn5n4)C(=O)N32)C1 [Compound 618, ((2-(((3S,6S,9aS)-3-(3-(4-ethylpyridin-3-yl)azetidine-1-carbonyl)-5-oxooctahydro-1H-pyrrolo[1,2-a]azepin-6-yl)carbamoyl)pyrazolo[1,5-a]pyridin-5-yl)methyl) phosphonic acid]
- IC50 [1]: 1 to 10 µM
- IC50 [2]: 3 to 30 µM

Compound: O=C(N[C@H]1CCC[C@H]2CC[C@@H](C(=O)N3CC(c4ccnc(O)c4)C3)N2C1=O)c1cc2cc(C(F)P(=O)(O)O)ccc2s1 (stereo partly drawn) [Compound 619, (fluoro(2-(((3S,6S,9aS)-3-(3-(2-hydroxypyridin-4-yl)azetidine-1-carbonyl)-5-oxooctahydro-1H-pyrrolo[1,2-a]azepin-6-yl)carbamoyl)benzo [b]thiophen-5-yl)methyl) phosphonic acid]
- IC50 [1]: 0.1 to 1 µM
- IC50 [2]: 3 to 30 µM

Compound: O=C(N[C@H]1CCC[C@H]2CC[C@@H](C(=O)N3CC(n4ccc(=O)nc4)C3)N2C1=O)c1cc2cc(C(F)P(=O)(O)O)ccc2s1 (stereo partly drawn) [Compound 620, (fluoro(2-(((3S,6S,9aS)-5-oxo-3-(3-(4-oxopyrimidin-1(4H)-yl)azetidine-1-carbonyl)octahydro-1H-pyrrolo[1,2-a]azepin-6-yl)carbamoyl)benzo [b]thiophen-5-yl)methyl) phosphonic acid]
- IC50 [1]: 0.1 to 1 µM
- IC50 [2]: 0.3 to 3 µM

Compound: O=C(N[C@H]1CCCC[C@H]2CC[C@@H](C(=O)N3CC(OCC(F)F)(c4ccccn4)C3)N2C1=O)c1cc2cc(C(F)P(=O)(O)O)ccc2s1 (stereo partly drawn) [Compound 621, ((2-(((3S,6S,10aS)-3-(3-(2,2-difluoroethoxy)-3-(pyridin-2-yl)azetidine-1-carbonyl)-5-oxodecahydropyrrolo [1,2-a]azocin-6-yl)carbamoyl)benzo [b]thiophen-5-yl)fluoromethyl) phosphonic acid]
- IC50 [1]: < 0.1 µM
- IC50 [2]: 3 to 30 µM

Compound: O=C(N[C@H]1CCC[C@H]2CC[C@@H](C(=O)N3CC(c4ncccc4F)C3)N2C1=O)c1cc2cc(C(F)P(=O)(O)O)ccc2s1 (stereo partly drawn) [Compound 623, (fluoro(2-(((3S,6S,9aS)-3-(3-(3-fluoropyridin-2-yl)azetidine-1-carbonyl)-5-oxooctahydro-1H-pyrrolo[1,2-a]azepin-6-yl)carbamoyl)benzo [b]thiophen-5-yl)methyl) phosphonic acid]
- IC50 [1]: 0.1 to 1 µM
- IC50 [2]: 3 to 30 µM
